According to patent US12156877B1, “Methods of treating conditions related to a thiamine deficiency, a thiamine-dependent enzyme, or an associated cofactor” (The Regents of the University of California, priority 2019, dated 2024):

What was measured:
[1] = tested on: mice on a thiamine-deficient diet
[2] = tested on: mice with thiamine-deficiency; experiment: Symptoms caused by thiamine deficiency (blood lactate, grip strength, body temperature) under different oxygen tensions; assay type: in vivo
Text: FIGS. 6A-6E depict the results of lowering FiO2 on the symptoms caused by thiamine deficiency. Blood lactate measured in mice housed under different oxygen tensions 21 and 35 days after the diets started. […] Muscle strength assessed by grip strength of mice administered with 17 ppm or 0 ppm thiamine for 21 days. Muscle strength is compromised in mice with thiamine-deficiency under 55% and 21% oxygen (FIG. 6C). […] Student's t-test * p<0.05, ** p<0.01, […]. While the present invention has been described with reference to the specific embodiments thereof, it should be understood by those skilled in the art that various changes may be made and equivalents may be substituted without departing from the true spirit and scope of the invention. In addition, many modifications may be made to adapt a particular situation, material, composition of matter, process, process step or steps, to the objective, spirit and scope of the present invention. All such modifications are intended to be within the scope of the claims appended hereto.

WKS mouse models = experiment: Body weight and disease onset of WKS mouse model (0 ppm thiamine and pyrithiamine injections) in normoxia versus hypoxia; assay type: in vivo, mice
Method: FIG. 3 depicts the body weight of Wernicke-Korsakoff (WKS) Animal Model (0 ppm thiamine and pyrithiamine injections) in normoxia versus hypoxia using the methods described herein.
Hypoxia and moderate hyperoxia exposure were tested in these mouse models of WK syndrome. Six groups of mice for each different oxygen exposure will be used—(no disease, moderate disease, extreme disease)×(with or without thiamine treatment starting day 10 of the disease model). […] This sample size should be sufficient to detect a 30% increase in survival with 80% power. Disease progression in these different conditions will be carefully monitored. Daily body weights from the beginning of treatment will be taken. Additionally, behavior was monitored on a weekly basis using rotarod tests, open field experiments and the Y-maze memory test. For 3 mice per group, T2-weighted MRI scans was performed once per week. This will allow the monitoring of the disease progression and reversal. For a separate set of 3 mice per group, mice were sacked, and neuropathology performed, staining for neuronal cell loss (using NeuN) or neuroinflammatory signatures (using antibodies against GFAP) similar to that performed in Jain et. al.
FIG. 3 depicts the results of WKS mouse models being treated at 21% O2 (normoxia) and 11% O2 (hypoxia) for a span of 20 days. […] Hypoxia began on Day 3 of the experiment.

[3] = tested on: mouse models for Wernicke-Korsakoff syndrome; conditions: 500 mg thiamine 3×/day; both models (thiamine-deficient diet, with or without pyrithiamine); cited from earlier work

Row | SMILES | onset of weight loss ([1]; 8% O2 (extreme hypoxia)) | survival at 60 days after start of thiamine-deficient diet ([1]; 8% O2 (extreme hypoxia)) | survival time ([1]; 8% O2 (extreme hypoxia)) | extension of survival time ([1]; 11% O2, versus 21% O2 (median survival time 37 days)) | rate of body weight loss ([1]; 11% O2, versus 21% O2 (weight loss began at 21 days)) | disease progression ([1]; 55% O2) | body temperature ([2]; 11% O2, thiamine-deficient diet for 43 days, mice under normoxic air exhibit hypothermia) | muscle strength assessed by grip strength ([2]; 55% oxygen, 0 ppm thiamine for 21 days) | blood lactate ([2]; 55% oxygen, day 21 and day 35 after the diets started, severe disease state) | disease onset (physiological signs of WKS) (WKS mouse models; 11% O2 (hypoxia) begun on Day 3, span of 20 days, versus 21% O2 (normoxia)) | significant drop of body-weight at Day 14 (WKS mouse models; 11% O2 (hypoxia), body-weight at 21% O2 dropped significantly at Day 14) | disease progression in thiamine-deficiency models [3]
1 | O=O [O2, oxygen] | further delayed the onset of weight loss | some mice were still alive at 60 days | extended the survival time | approximately 13 days | lost body weight at a slower rate | exacerbated the disease progression | normal body temperatures | compromised | lactic acidosis | prevented disease onset | did not | 
2 | Cc1ncc(C[n+]2csc(CCO)c2C)c(N)n1 [thiamine] |  |  |  |  |  |  |  |  |  |  |  | can be reversed
